Data on eight compounds can be found in paper PMC8247401, “Evaluation of clinical and genetic factors in the population pharmacokinetics of carbamazepine” (British Journal of Clinical Pharmacology, 2020).

Read-outs that look alike come from different tables or passages of the source.

Data set [1] in a line: Population PK model (NONMEM) of plasma CBZ and 3 metabolites after oral CBZ. To be noted: for effect of concomitant treatment as covariate on CBZ clearance/metabolism: categorical covariate on CLTOT in the population PK model, small numbers of subjects; for % Interindividual variability of V2: V2 shared by the 3 metabolites; for clearance: human, plasma, oral; for V2, volume of distribution of metabolites: same V2 estimated for CBZE, 2OH-CBZ and 3OH-CBZ, apparent.

For data set [2] the following is noted: 70-kg patient prescribed 400 mg CBZ; model assumes 0.65 of CBZ converted to CBZE; cited from earlier work.
On the set-up of data set [3]: method as in PMID 6491988. To be noted: fixed, not estimated; CL2 (to CBZE)=CLTOT*(1-FM1), CL3=CL4=CLTOT*FM1/2; cited from earlier work.
Details of data set [4]: method as in PMID 17382827. To be noted: patients treated with CBZ, cited from earlier work.
For data set [5] the following is noted: cited from earlier work.
Data set [6] concerns microsomal epoxide hydrolase. The settings on record: concurrent brivaracetam therapy in patients on CBZ; cited from earlier work.
The mark [7] stands for this setting: final model, log-normal distribution.

In the case of `COc1ccc2[nH]c([S+]([O-])Cc3ncc(C)c(OC)c3C)nc2c1` (stereo not shown) [omeprazole], the “effect of concomitant treatment as covariate on CBZ clearance/metabolism” value (shortened to “effect … on CBZ clearance/metabolism”) in data set [1] is “Neither was found to affect metabolism of CBZ significantly”.

Regarding `NC(=O)OCC(COC(N)=O)c1ccccc1` [felbamate], the “effect … on CBZ clearance/metabolism” value in data set [1] is reported as “None of those antiepileptic drugs (AEDs) achieved a significant effect”.

On to `NC(=O)N1c2ccccc2C=Cc2cc(O)ccc21` [2OH‐CBZ, 2‐hydroxycarbamazepine], for which, in data set [1] (setting [7]), the “% Interindividual variability of CL3E” value was 42.3% and the “% Interindividual variability of V2” value was determined as 149.7%. Besides, the clearance in data set [1] is 12100 mL/min. Further, the CL3E induction effect in data set [1] (multiplier (fold) on CL3E for induced period vs non-induced) is listed as 1.63. The “V2, volume of distribution of metabolites” value (from here on “V2, volume”) in data set [1] (population mean) is given as 39.2 L.

Take `NC(=O)N1c2ccccc2C2OC2c2ccccc21` (stereo not shown) [CBZE, carbamazepine 10,11‐epoxide]: the “CL estimate for CBZE in a previous population PK model” value in data set [2] is reported as 28 L/h. Also, the “reduction of clearance of CBZE” value in data set [1] (EPHX1-416G/G genotype (3 subjects) compared with EPHX1-416G/A and -416A/A) is given as “approximately 50%”. In data set [1] (setting [7]), the “% Interindividual variability of CL2E” value was 27.9% and the “% Interindividual variability of V2” value is recorded as 149.7%. Moreover, the clearance in data set [1] is 162 mL/min. For the same compound, the “Cov.Eff.(EPHXAGHOM on CL2E)” value in data set [1] (multiplier on CBZE clearance in EPHX1-416G/G homozygotes (n=3) vs G/A and A/A) is on record as 0.502. Besides, the “V2, volume” value in data set [1] (population mean) is 39.2 L.

For the compound `CCC1(c2ccccc2)C(=O)NC(=O)NC1=O` [phenobarbital], in data set [1], the “effect … on CBZ clearance/metabolism” value is “None of those antiepileptic drugs (AEDs) achieved a significant effect”.

`NC(=O)N1c2ccccc2C=Cc2ccc(O)cc21` [3OH‐CBZ, 3‐hydroxycarbamazepine]: in data set [1] (setting [7]), the “% Interindividual variability of CL4E” value came to 34.5% and the “% Interindividual variability of V2” value was found to be 149.7%. Besides, the clearance in data set [1] is 9050 mL/min. Besides, in data set [1] (population mean), the “V2, volume” value was 39.2 L.

For `NC(=O)N1c2ccccc2C=Cc2ccccc21` [CBZ, Carbamazepine], in data set [3], the “FM1 (metabolite fraction)” value is reported as 0.64. Moreover, in data set [4], the “patients experiencing a hypersensitivity reaction” value was “up to 10%”. For the same compound, in data set [4] (listed as Carbamazepine), the “patients experiencing a hypersensitivity reaction” value was ~ 10%. Also, in data set [5], the “fraction of CBZ converted to CBZE assumed in this model” value was 0.36. The “parent CBZ primarily converted to CBZE” value in data set [5] (prior mass balance information) is 36%. Further, the “fraction of CBZ converted to CBZE assumed in the model of Jiao et al.” value in data set [5] (ref Jiao et al. (58)) is on record as 0.65. Also, in data set [1] (setting [7]), the “% Interindividual variability of CLTOT” value turned out to be 25.3%, the “% Interindividual variability of FM1” value came out at 6.3%, the “% Interindividual variability of KASTAR” value was determined as 75.3% and the “% Interindividual variability of V1” value is reported as 13.6%. Besides, the “V1, central distribution volume of CBZ” value in data set [1] (population mean, final model, apparent (V/F)) is 161 L. Further, the “CLTOT, total clearance of CBZ” value in data set [1] (population mean, final model, oral dosing, apparent (CL/F), typical value non-induced, 400 mg daily dose, no phenytoin) came to 1.96 L/h. Further, in data set [1] (population mean, absorption rate constant KA=CLTOT/V1+KAstar), the KASTAR was 0.409 h⁻¹.

For `CCC[C@@H]1CC(=O)N([C@@H](CC)C(N)=O)C1` [Brivaracetam], in data set [6], the “rise in CBZE levels, median” value is 83.9% and the “rise in CBZE levels, range” value is 57.9–341.7%.
